Test: not given
Compound `C#CCC(O)c1cccnc1` (stereo not drawn) has a logP of 1.21.

Test: method code SF, from DOI: 10.1002/ps.2780140605
`C#CCC(O)(c1cccnc1)c1ccc(Cl)c(Cl)c1` (stereo not drawn) showed a logP of 2.42.
`C#CCC(O)(c1cccnc1)c1ccc2ccccc2c1` (stereo not drawn) showed a logP of 2.14.
`C#CCC(O)(c1ccc(C(C)C)cc1)c1cccnc1` (stereo not drawn) showed a logP of 2.16.
In the case of `C#CCC(O)(c1cccnc1)C1CCCCC1` (stereo not drawn), the logP was 2.09.
For `C#CCC(O)(CC#C)c1cccnc1`, the logP was 1.29.
With `C#CCC(O)(c1cccnc1)c1ccc(Cl)cc1Cl` (stereo not drawn) the logP was 2.29.
In the case of `C#CCC(O)(c1ccc(F)cc1)c1cccnc1` (stereo not drawn), the logP was 1.78.

Reference: the SangsterLogP compilation
